What all share (assay type): cell-based
The subject of assay [1] is ovarian cancer cell line (CP70). Kind of assay: Single cell ICP-MS of cisplatin-exposed CP70 cells (195Pt monitored). The settings on record: over the course of eight hours, FIG. 21. How it is done: A cell suspension can be nebulized by introducing the cell suspension through a nebulizer fluidically coupled to a spray chamber as described herein. The spray chamber can select individual cells and provide them to an inductively coupled plasma. As each cell enters the plasma, it is ionized, and the resulting ion burst from the intrinsic metal species is detected by a mass spectrometer. Each cell is treated the same as an individual particle. Cell concentrations can desirably be around 100,000 cell/mL to minimize coincidence—a situation where to cells are provided at the same time to the plasma.
To determine the effectiveness of detection of cisplatin using single cell ICP-MS using the spray chambers described herein, an ovarian cancer cell line (CP70) was exposed to cisplatin and monitored over time. Analyses were carried out on a PerkinElmer NexION 350 D ICP-MS with a 2 mm quartz injector and quartz torch operating with an RF power of 1600 W. A spray chamber as shown in FIG. 2 (though the spray chambers of FIGS. 3, 4 and 5A-5D could be used instead) can be used with a high efficiency concentric glass nebulizer (Meinhard) was used with the spray chamber and the NexION 350 D instrument.
Because background levels of Pt are non-existent and there are no common interferences on 195Pt, each spike represents Pt detected in an individual cell. […]

Assay [2] concerns A2780/CP70 ovarian cancer cell line. Briefly: Cisplatin uptake time course, single cell ICP-MS. How it is done: (§1) Cisplatin uptake in two ovarian cancer cell lines was evaluated using single particle ICP-MS (SP-ICP-MS). The ovarian cancer cell lines A2780 and A2780/CP70 were used in all experiments. Cells were grown in RPMI […] media (Gibco™) supplemented with 10% fetal bovine serum (FBS, Gibco™), insulin (Sigma-Aldrich™), 1-glutamine (Gibco™), and pen/strep (Gibco™) under 5% CO2 at 37° C. For serum starvation experiments, cells were plated and allowed to attach to the dishes. The media was removed and replaced with serum-free media for approximately 18 hours after which the media was replaced with regular media to begin cisplatin treatment. Cisplatin was re-suspended at 1 mg/mL in sterile saline and vigorously shaken for 30 minutes prior to treatment. Cells were treated with 30μM cisplatin for a time course where samples were collected at 1, 2, 4, and 8 hours post-treatment. For analysis, cells were washed twice with phosphate-buffered saline (PBS) and collected using the non-enzymatic cell dissociation solution Cellstripper (Corning™). Cells were centrifuged at 500×g for 10 minutes. The supernatant was discarded, and the cells were resuspended in 1 mL PBS, filtered through a 70μm nylon mesh, and quantitated by hemocytometer counting. Cells were diluted in PBS to a final concentration of 100,000 cells/mL and kept on ice until injection.
(§2) Analyses were performed with PerkinElmer's NexION® ICP-MS using the Syngistix™ Single Cell Application Software Module for data collection and processing. Instrumental conditions were as follows: sample uptake rate 0.04 mL/minute, 2.0 mm id quartz injector, 1600 Watts RF power, 0.36 L/minute nebulizer gas flow rate, 0.7 L/minute makeup gas flow rate, and a 60 second sample analysis time. A Meinhard HEN nebulizer and the spray chamber of FIG. 2 were also used (though the spray chambers of FIGS. 3, 4 and 5A-5D could be used instead). The Single Cell Sample Introduction Kit (Part No. N8150031) was used for sample introduction to the NexION. The kit consists of a high-efficiency nebulizer (Part No. N8142046) and the spray chamber designed for transport of cells to the plasma. Cells (1-100 microns) are larger than droplets which typically pass through conventional spray chambers (less than 2 microns).
(§3) Ionic platinum standards were prepared in PBS to matrix match the cell sample. A standard curve was generated using 1, 2, and 3 ppb platinum standard. Transport efficiency was determined using […] gold nanoparticles in PBS.
(§4) The cells chosen for this study are the ovarian cancer cell lines A2780 and A2780/CP70, which are good models for developing the single cell method since the molecular mechanism for resistance […]. A2780 is a cisplatin-sensitive cell line, while the A2780/CP70 line is cisplatin resistant. This resistance was developed by exposing the A2780 parental cell line to increasing doses of cisplatin. The A2780/CP70 cells developed resistance by reducing cisplatin uptake in addition to up-regulating DNA repair. We explored cisplatin uptake by performing a time course experiment to analyze how the distribution of cisplatin uptake changed over time within the cellular population. Both cell lines were treated for 1, 2, 4, and 8 hours with 30μM cisplatin. […] After the data is collected, the mass distribution peak can be integrated, as shown in FIG. 30C (frequency vs mass(ag)).
(§5) The time course data was summarized by fitting each histogram with a Log Normal curve. The mean intensity was determined for each time point and plotted to show the cisplatin uptake difference between A2780 and A2780/CP70 cells over time, as shown in FIG. 33.

The test system of assay [3] is A2780 ovarian cancer cell line. Kind of assay: Cisplatin uptake time course, single cell ICP-MS. How it is done:
as §1, §2, §3, §4, §5

In the case of `N.N.[Cl][Pt][Cl]` [cisplatin], in assay [1], the “Pt content within cells (cisplatin uptake)” value is “increases over time”. Further, the uptake of platinum result in assay [2] (A2780/CP70, 30μM cisplatin, one hour of treatment) was “very little uptake of platinum”; in assay [3] (A2780, 30μM cisplatin, one hour of treatment), “very little uptake of platinum”. For the same compound, the “effect of serum starvation on cisplatin uptake” value was “no effect on the uptake of cisplatin” in assay [2] (A2780/CP70, serum-starved vs control cells, FIGS. 34A and 34B); “no effect on the uptake of cisplatin” in assay [3] (A2780, serum-starved vs control cells, FIGS. 34A and 34B). Moreover, the “cisplatin uptake over time (mean intensity of Log Normal fit)” value in assay [3] (A2780 vs A2780/CP70, 30μM cisplatin, 1-8 hours, FIG. 33) is on record as “increased cisplatin uptake”. In assay [3] (A2780 vs A2780/CP70, 30μM cisplatin, eight hours), the “population of cells by cisplatin content, comparison of cell lines” value is reported as “increased population of cells with more cisplatin than A2780/CP70”.

The values above are taken from patent US11315778B2, “Spray chambers and methods of using them” (PERKINELMER HEALTH SCIENCES CANADA, INC., priority 2016, dated 2022).
